Values after ≈ are worked out from the molar mass of the structure shown. Bounds are passed on as bounds.

Common to all, as to format: cell-based
Assay [1] relates to Aspergillus fumigatus MYA3626 spores. The assay is described as follows: Broth microdilution MIC assay. To be noted: MYA3626SPORES. How it is done: (§1) Broth Microdilution Minimal Inhibitory Concentration (MIC) assays were performed to obtain the MIC values for Itraconazole and Ketoconazole with an antibiotic (Vancomycin or Tobramycin or Amikacin) against the two fungal strains.
(§2) Fungal strains: Aspergillus fumigatus MYA3626 and Candida albicans ATCC 90028 strains were obtained from the American Type Culture Collection (Manassas, Va.). The strains were maintained as a frozen glycerol stocks at −80° C. The fungal strains were prepared by thawing a glycerol stock, streaking and growing onto Sabouraud's Dextrose Agar (SDA) plates, overnight at 35±2° C. in aerobic conditions and used for the assay.
(§3) Antifungal agents: Itraconazole (Cat #16657, Lot #087K1322), Ketoconazole (Cat # K1003, Lot # SLBR1290V). Stocks were prepared in appropriate solvents following the CLSI guidelines. See, for example, Reference method for broth dilution antifungal susceptibility testing of filamentous fungi, approved standard, 2nd ed. CLSI document M38-A2, vol. 28. CLSI, Wayne, Pa. (2008).
(§4) The completely synthetic medium RPMI-1640 (with glutamine, without bicarbonate, and with phenol red as a pH indicator) was buffered with 0.165 mol/L MOPS (3-[N-morpholino] propanesulfonic acid) buffer was used as the growth medium for the fungal strains. Overnight cultures of the fungal strains were grown on Difco™ Sabouraud's Dextrose Agar (SDA) plates at 35° C. To induce conidium and sporangiospore formation, the culture plates were transferred to incubator and grown for 5-7 days 30° C. or until good sporulation was obtained. Approximately, 10 mL of 0.85% saline containing 0.01% of Tween 80 was used to poured on to the agar plate containing conidia or sporangiospores and hyphal fragments. The suspension containing conidia or sporangiospores and hyphal fragments was aspirated and transferred to a sterile tube. This mixture was filtered to separate the spores from the vegetative cells of the fungi. The supernatant containing only fungal spores was used for all the assays. Fungal spore inoculum was prepared in RPMI-1640 (with glutamine, without bicarbonate, and with phenol red as a pH indicator) was buffered with 0.165 mol/L MOPS (3-[N-morpholino] propanesulfonic acid) buffer to a final density of 10^6 CFU/mL using a hemocytometer.
(§5) Each MIC assay included 11 2-fold serial dilutions of the antifungal agents. Test concentrations for the test articles were tested at the following concentrations: 64 μg/mL, 32 μg/mL, 16 μg/mL, 8 μg/mL, 4 μg/mL, 2 μg/mL, 1 μg/mL, 0.5 μg/mL, 0.25 μg/mL, 0.125 μg/mL, and 0.0625 μg/mL. Broth microdilution assays were performed according to the procedures detailed in CLSI document M38-A2 (CLSI, 2008). Briefly, 2× stock solutions of test articles were prepared at 128 μg/mL. A two-fold serial dilution of the stock solution were performed. Diluted stock solutions of the fungal spores were adjusted (to be equivalent to 10^6 CFU/mL). 1× final concentration of the antifungals was obtained when they were combined with the fungal spore broth in the microtiter plate. Plates were incubated for 3-5 days at 35±2° C. in an ambient air incubator. MIC values recorded are the minimum concentration of the test articles that inhibits growth as observed by unaided eye. The MIC values was expressed in μg/mL. The assay was carried out in duplicates.

The test system of assay [2] is Candida albicans ATCC 90028 spores. The assay is described as follows: Broth microdilution MIC assay. To be noted: Candida albicans alone. How it is done: as §1, §2, §3, §4, §5
Background: Dilution methods test growth across graded concentrations, often in twofold steps.

Assay [3] deals with co-culture of Aspergillus fumigatus + Candida albicans spores (1:1). As to the kind of experiment: Broth microdilution MIC assay, co-culture. How it is done: as §1, §2, §3, §4, §5
Assay [4] deals with Aspergillus fumigatus MYA3626 spores. The assay is described as follows: Checkerboard synergy assay. To be noted: MYA3626SPORES, FIG. 5 synergy data, agent alone. As for the experimental part: (§6) This study evaluated the synergistic activity of 2 antifungal agents (Itraconazole and Ketoconazole) with an antibiotic (Vancomycin or Tobramycin or Amikacin) against the spores of 2 fungi; Aspergillus fumigatus MYA3626 and Candida albicans ATCC 90028; individually as well as in co-cultivation (Aspergillus fumigatus+Candida albicans). Synergy testing was carried out as per checkerboard assay by Victor Lorian methodology. See, for example, Lorian, V. Antibiotics in Laboratory Medicine. Edition 5: (2005).
(§7) In vitro activity of the test articles were tested in combination by the Checkerboard assay. See, for example, Lorian, V. Antibiotics in Laboratory Medicine. Edition 5: (2005). The assay was carried out in duplicates. The starting concentrations for the test articles was determined as per the MIC data. Two-fold serial dilutions of 8×MIC for the antifungal agents; Itraconazole and Ketoconazole was performed separately. When Itraconazole and Ketoconazole were combined in a microtiter plate, the concentration of both agents was 2×MIC. 1× final concentration of the antifungal agents were obtained when they were combined with the 10^6 CFU/mL fungal spore inoculum in the microtiter plate. The plates were incubated at 35° C. for 3-5 days. The assay plates were visually inspected to confirm the MIC endpoint and used to calculate the Fractional Inhibitory Concentration (FIC) Index to determine any synergistic interaction.
(§8) The FIC Index was calculated as follows:
(§9) FIC Index=FICA+FICB • where, A and B are the MIC of the test article and an antifungal in combination (in a single well). MICA and MICB are the MICs of each antifungal individually.
(§10) FIC Index value was used to categorize the interaction, as follows:
(§11) To determine if Itraconazole and Ketoconazole combination had synergistic antifungal activity, a synergy assay was carried out with Itraconazole (1 μg/mL, 0.5 μg/mL, 0.25 μg/mL, 0.125 μg/mL, 0.0625 μg/mL, 0.0312 μg/mL, and 0.0156 μg/mL) and Ketoconazole (8 μg/mL, 4 μg/mL, 2 μg/mL, 1 μg/mL, 0.5 μg/mL, 0.25 μg/mL, 0.125 μg/mL, 0.0625 μg/mL, 0.0312 μg/mL, 0.0156 μg/mL and 0.0078 μg/mL) against Aspergillus fumigatus alone, Candida albicans alone, and against Aspergillus fumigatus+Candida albicans co-culture.

For assay [5], the system named is Candida albicans ATCC 90028 spores. As to the kind of experiment: Checkerboard synergy assay. To be noted: ATCC90028, FIG. 6 synergy data, agent alone. How it is done:
as §6, §7, §8, §9, §10, §11

For assay [6], the system named is co-culture of Aspergillus fumigatus + Candida albicans spores (1:1). As to the kind of experiment: Checkerboard synergy assay, co-culture. To be noted: FIG. 7 synergy data, agent alone. How it is done: as §6
as §7, with “The assay plates were visually inspected to confirm the MIC endpoint and used to calculate the Fractional Inhibitory Concentration (FIC) Index to determine any synergistic interaction.” left out
The FIC Index was calculated as follows: […]

The subject of another assay is Candida albicans. The assay is described as follows: Culture and sensitivity, Patient 7. To be noted: culture from Patient 7. The text has this:
(§12) The patient underwent the standard workup for CRS, sleep disorder, and nasal obstruction, plus our diagnostic skin test and sinus CT scan.

Assay [7] deals with S. aureus, a gram negative bacteria. The assay is described as follows: Culture and sensitivity, Patient 7. As to conditions: culture from Patient 7.
Text: as §12

The mark [8] stands for this setting: Table 3, Aspergillus fumigatus alone, 10^6 CFU/mL spores, 3-5 days at 35° C.
[9] abbreviates: Table 4, repeated MIC study, Aspergillus fumigatus alone.
Setting [10] is: ATCC90028, Table 3, 10^6 CFU/mL spores, 3-5 days at 35° C., read-out: MIC.
The mark [11] stands for this setting: Aspergillus fumigatus, Table 3, read-out: MIC.
Setting [12] is: Aspergillus fumigatus, Table 4, repeated MIC study, agent alone, read-out: MIC.

By MIC is commonly meant the smallest concentration in the dilution series that meets the test's criterion for growth inhibition. For `CCC(C)n1ncn(-c2ccc(N3CCN(c4ccc(OCC5COC(Cn6cncn6)(c6ccc(Cl)cc6Cl)O5)cc4)CC3)cc2)c1=O` (stereo not drawn) [Itraconazole], the minimal inhibitory concentration (MIC) is 0.5 µg/mL (≈ 0.709 µM) in assay [1] (setting [8]); 1 µg/mL (≈ 1.42 µM) in assay [1] (setting [9]); 0.06 µg/mL (≈ 0.085 µM) in assay [2] (setting [10]); 0.06 µg/mL (≈ 0.085 µM) in assay [2] (Table 4, repeated MIC study); 0.5 µg/mL (≈ 0.709 µM) in assay [3] (setting [11]); 1 µg/mL (≈ 1.42 µM) in assay [3] (setting [12]). Moreover, the minimum inhibitory concentration (MIC) in assay [3] (Table 4, repeated MIC study, agent alone, listed as Itraconazone) is 1 µg/mL (≈ 1.42 µM); in assay [4], over 0.5 µg/mL; in assay [5] it was over 0.0312 µg/mL; in assay [6], over 0.5 µg/mL.
As for `CC(=O)N1CCN(c2ccc(OCC3COC(Cn4ccnc4)(c4ccc(Cl)cc4Cl)O3)cc2)CC1` (stereo not drawn) [Ketoconazole], the minimum inhibitory concentration (MIC) turned out to be 16 µg/mL (≈ 30.1 µM) in assay [1] (setting [8]); 8 µg/mL (≈ 15.1 µM) in assay [1] (setting [9]); 0.06 µg/mL (≈ 0.113 µM) in assay [2] (setting [10]); 0.06 µg/mL (≈ 0.113 µM) in assay [2] (Table 4, repeated MIC study); 16 µg/mL (≈ 30.1 µM) in assay [3] (setting [11]); 8 µg/mL (≈ 15.1 µM) in assay [3] (setting [12]). For the same compound, the results for the minimal inhibitory concentration (MIC) in assay [4], in assay [5] and in assay [6] were over 4 µg/mL, over 0.0312 µg/mL and over 4 µg/mL, respectively. The “Sensitivity of cultured Candida albicans” value with Candida albicans was “sensitive”.
Consider `NC[C@H]1O[C@H](O[C@H]2[C@H](O)[C@@H](O[C@H]3O[C@H](CO)[C@@H](O)[C@H](N)[C@H]3O)[C@H](N)C[C@@H]2N)[C@H](N)C[C@@H]1O` [tobramycin], for which the “Sensitivity of cultured bacteria” value in assay [7] is on record as “sensitive”.

Values taken from patent US20180050033A1, “ANTIFUNGAL TREATMENT OF RHEUMATOID ARTHRITIS” (Gerbe Labs Inc., priority 2016, published 2018).
